Reference: article PMC6857076 (Pharmacology Research & Perspectives, 2019)
Like-named read-outs stand apart in the source and are kept apart here.

Experiments:
[1] = unbound, Cav × fu
platelet counts = details: integrated analysis of phase 1b, 2, 3 and LTE RA studies, baricitinib 4 mg QD; cited from earlier work
NK cell counts = details: RA, baricitinib 4 mg QD, cited from earlier work
CRP = details: RA, cited from earlier work
in vitro = details: both, human, pooled human plasma
[2] = integrated analysis of phase 1b, 2, 3 and LTE RA studies, baricitinib 4 mg QD; cited from earlier work
[3] = human; baricitinib 4 mg QD; cited from earlier work
[4] = molecular target: recombinant human kinase domain of TYK2 (Homo sapiens, UniProt P29597); assay: Enzymatic microfluidic kinase assay, TYK2
[5] = pooled RA clinical studies, cited from earlier work

Chain of recombinant human kinase domain of TYK2 (P29597 897-1176 limits assumed): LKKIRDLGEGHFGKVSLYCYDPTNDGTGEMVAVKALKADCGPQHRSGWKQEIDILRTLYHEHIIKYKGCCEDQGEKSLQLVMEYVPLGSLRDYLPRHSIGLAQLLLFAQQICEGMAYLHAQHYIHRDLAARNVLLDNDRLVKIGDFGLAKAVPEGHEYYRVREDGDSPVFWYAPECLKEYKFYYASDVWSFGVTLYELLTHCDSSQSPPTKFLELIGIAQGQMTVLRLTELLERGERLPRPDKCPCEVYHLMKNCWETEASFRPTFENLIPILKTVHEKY

Compound | Cav,u ([1]; baricitinib 4 mg QD) [nM] | platelet counts vs baseline (platelet counts) | change from baseline in NK cell counts (NK cell counts; week 12) [cells/mm^3] | change from baseline in NK cell counts (NK cell counts; week 24) [cells/mm^3] | reduction of CRP levels from baseline to week 12 (CRP; baricitinib 4 mg QD) | fraction unbound at 6 h, 1 μmol/L (in vitro) | hemoglobin levels vs baseline [2] | Cav [3] [nM] | IC50 [4] [nM] | herpes zoster incidence rate ([5]; baricitinib 2 mg QD) | herpes zoster incidence rate ([5]; baricitinib 4 mg QD) | Cav,u ([1]; tofacitinib 5 mg BID) [nM] | reduction of CRP levels from baseline to week 12 (CRP; tofacitinib 5 mg BID) [mg/L]
CCS(=O)(=O)N1CC(CC#N)(n2cc(-c3ncnc4[nH]ccc34)cn2)C1 [Baricitinib] | 16.0 | initial increase in platelet counts, which then returned toward baseline | −57.0 | −53.4 | approximately −10 mg/L | 0.59 | decreased from baseline to week 20, then returned to baseline or higher | 27 | 14 | 2.7 events per 100 patient-years | 4.3 events per 100 patient-years | – | –
C[C@@H]1CCN(C(=O)CC#N)C[C@@H]1N(C)c1ncnc2[nH]ccc12 [Tofacitinib] | – | – | – | – | – | – | – | – | – | – | – | 41.0 | -10.1
